Reference: patent publication EP2654730B1, “HIGH DRUG LOAD PHARMACEUTICAL FORMULATIONS COMPRISING DRONEDARONE AND ITS PHARMACEUTICALLY ACCEPTABLE SALTS” (KRKA, d.d., Novo mesto, priority 2010, dated 2012)
Structures can show the parent of a compound that is named as a salt.

Key:
[1] = Dissolution test of Dronedarone HCl 400 mg tablets (Apparatus 2 paddle); type: physicochemical; details: at 60 minutes, paddle 75 rpm, 1000 ml Buffer Solution pH 4.5
Protocol: The dissolution profiles of several of the pharmaceutical compositions exemplified above are determined.
Dissolution conditions for Dronedarone HCl 400 mg tablets: • Apparatus: 2 - Paddle (USP and Ph. Eur.) • Rotation speed: 75 rpm • Medium: 1000 ml Buffer Solution pH 4.5
API 1 or API 2 was included in the pharmaceutical composition as disclosed in example 17.
The pharmaceutical compositions used in dissolution test shown in Figure 2 comprised different surfactants or no surfactant. The pharmaceutical compositions were prepared according to examples 16A-D, 17A and 18A by using API 1, API 2 or API 3.

[2] = Particle size d90 by laser light scattering (Malvern Mastersizer MS 2000); type: physicochemical; details: particles after crystallization and Jetmill MC-50 micronization
Source text: As used herein d90<x means that at least 90% by volume of the particles have a particle size below x. The particle size can be determined by laser light scattering for instance using a Malvern Mastersizer Apparatus MS 2000 equipped with a Hydro S dispersion unit. Silicon fluid F10 may be used as dispersion medium.

[3] = Specific surface area of dronedarone HCl particles (BET method); type: physicochemical; details: particles after crystallization and Jetmill MC-50 micronization
Source text: The specific surface area can be determined using the BET method.

[4] = aqueous media, pH 3-5 (maximal); cited from earlier work

| SMILES | dissolution rate ([1]; compositions of examples 16A-D, 17A and 18A, compared with compositions prepared from API 2 or API 3) | dissolution rate ([1]; tablet composition of example 17, compared with same composition prepared from API 2) | Particle size d90 [2] | Specific surface area [3] | solubility [4] |
| --- | --- | --- | --- | --- | --- |
| CCCCc1oc2ccc(NS(C)(=O)=O)cc2c1C(=O)c1ccc(OCCCN(CCCC)CCCC)cc1.Cl [API 1] | substantial lower dissolution rate | substantial lower dissolution rate | 5.1 µm | 8.3 m^2/g | – |
| CCCCc1oc2ccc(NS(C)(=O)=O)cc2c1C(=O)c1ccc(OCCCN(CCCC)CCCC)cc1.Cl [API 2] | – | – | 7.1 µm | 6.2 m^2/g | – |
| CCCCc1oc2ccc(NS(C)(=O)=O)cc2c1C(=O)c1ccc(OCCCN(CCCC)CCCC)cc1.Cl [API 3] | – | – | 7.4 µm | 6.0 m^2/g | – |
| CCCCc1oc2ccc(NS(C)(=O)=O)cc2c1C(=O)c1ccc(OCCCN(CCCC)CCCC)cc1 [dronedarone hydrochloride, N-(2-butyl-3-(p-(3-(dibutylamino)propoxy)benzoyl)-5-benzofuranyl)methanesulfonamide] | – | – | – | – | 1000 to 2000 µg/mL |
